Like-named read-outs stand apart in the source and are kept apart here.
Key:
Assay in all cases: Herbicidal activity for paddy test
Format in all cases: in vivo
SAGPY = settings: for pest or weed control at 2 g/ha: 0.002 kg/ha; for pest or weed control at 8 g/ha: 0.008 kg/ha; for pest or weed control at 31 g/ha: 0.031 kg/ha; for pest or weed control at 125 g/ha: 0.125 kg/ha; for pest or weed control at 500 g/ha: 0.500 kg/ha
From the text: (§1) The sterilized sandy loam soil is filled in test pot having a surface area of 348 cm^2 for upland test conditions or 115 cm^2 for paddy test species were planted in furrows.
(§2) The herbicidal activity data were taken visually by percent control, wherein 0 signifies no herbicidal effect and 100 signifies complete kill.

ECHOR = settings: for pest or weed control at 2 g/ha: 0.002 kg/ha; for pest or weed control at 8 g/ha: 0.008 kg/ha; for pest or weed control at 31 g/ha: 0.031 kg/ha; for pest or weed control at 125 g/ha: 0.125 kg/ha; for pest or weed control at 500 g/ha: 0.500 kg/ha
From the text: as §1, §2

SCPJU = settings: for pest or weed control at 2 g/ha: 0.002 kg/ha; for pest or weed control at 8 g/ha: 0.008 kg/ha; for pest or weed control at 31 g/ha: 0.031 kg/ha; for pest or weed control at 125 g/ha: 0.125 kg/ha; for pest or weed control at 500 g/ha: 0.500 kg/ha
From the text: as §1, §2

ORYSA = settings: for plant injury at 2 g/ha: 0.002 kg/ha; for plant injury at 8 g/ha: 0.008 kg/ha; for plant injury at 31 g/ha: 0.031 kg/ha; for plant injury at 125 g/ha: 0.125 kg/ha; for plant injury at 500 g/ha: 0.500 kg/ha
From the text: as §1, §2

MOOVA = settings: for pest or weed control at 2 g/ha: 0.002 kg/ha; for pest or weed control at 8 g/ha: 0.008 kg/ha; for pest or weed control at 31 g/ha: 0.031 kg/ha; for pest or weed control at 125 g/ha: 0.125 kg/ha; for pest or weed control at 500 g/ha: 0.500 kg/ha
From the text: as §1, §2

[1] = 3 Leaf, read-out: Herbicidal activity, ORYSA (3 Leaf)
[2] = seed, read-out: Herbicidal activity, ORYSA (seed)

SMILES | pest or weed control at 2 g/ha (SAGPY) | pest or weed control at 8 g/ha (SAGPY) | pest or weed control at 31 g/ha (SAGPY) | pest or weed control at 125 g/ha (SAGPY) | pest or weed control at 500 g/ha (SAGPY) | pest or weed control at 2 g/ha (ECHOR) | pest or weed control at 8 g/ha (ECHOR) | pest or weed control at 31 g/ha (ECHOR) | pest or weed control at 125 g/ha (ECHOR) | pest or weed control at 500 g/ha (ECHOR) | pest or weed control at 2 g/ha (SCPJU) | pest or weed control at 8 g/ha (SCPJU) | pest or weed control at 31 g/ha (SCPJU) | pest or weed control at 125 g/ha (SCPJU) | pest or weed control at 500 g/ha (SCPJU) | plant injury at 2 g/ha (ORYSA; [1]) | plant injury at 8 g/ha (ORYSA; [1]) | plant injury at 31 g/ha (ORYSA; [1]) | plant injury at 125 g/ha (ORYSA; [1]) | plant injury at 500 g/ha (ORYSA; [1]) | other results
C=CCON=C(CC)C1=C(O)CC(c2c(C)c(C)c3c(c2C)CC(C)(C)C3)CC1=O (stereo not drawn) [Compound 3, 5-(2,2,4,6,7-Pentamethylindan-5-yl)-2-[1-(allyloxyimino)propyl]-3-hydroxycyclohex-2-en-1-one] | 0% | 0% | 0% | 0% | 0% | 0% | 100% | 100% | 100% | 100% | 0% | 0% | 0% | 0% | 0% | 0% | 0% | 0% | 10% | 100% | plant injury at 2 g/ha (ORYSA; [2]): 0%; plant injury at 8 g/ha (ORYSA; [2]): 10%; plant injury at 31 g/ha (ORYSA; [2]): 100%; plant injury at 125 g/ha (ORYSA; [2]): 100%; plant injury at 500 g/ha (ORYSA; [2]): 100%; pest or weed control at 2 g/ha (MOOVA): 0%; pest or weed control at 8 g/ha (MOOVA): 0%; pest or weed control at 31 g/ha (MOOVA): 0%; pest or weed control at 125 g/ha (MOOVA): 0%; pest or weed control at 500 g/ha (MOOVA): 0%
CCC(=NOCC=CCl)C1=C(O)CC(c2c(C)c(C)c3c(c2C)CC(C)(C)C3)CC1=O (stereo not drawn) [Compound 4] | 0% | 0% | 0% | 0% | 50% | 0% | 100% | 100% | 100% | 100% | 0% | 0% | 0% | 0% | 0% | 0% | 0% | 0% | 10% | 40% | plant injury at 2 g/ha (ORYSA; [2]): 0%; plant injury at 8 g/ha (ORYSA; [2]): 0%; plant injury at 31 g/ha (ORYSA; [2]): 100%; plant injury at 125 g/ha (ORYSA; [2]): 100%; plant injury at 500 g/ha (ORYSA; [2]): 100%; pest or weed control at 2 g/ha (MOOVA): 0%; pest or weed control at 8 g/ha (MOOVA): 0%; pest or weed control at 31 g/ha (MOOVA): 0%; pest or weed control at 125 g/ha (MOOVA): 0%; pest or weed control at 500 g/ha (MOOVA): 0%
CCCC(=NOCC)C1=C(O)CC(c2c(C)c(C)c3c(c2C)CC(C)(C)C3)CC1=O (stereo not drawn) [Compound 7] | 0% | 0% | 0% | 0% | 40% | 95% | 95% | 100% | 100% | 100% | 0% | 0% | 0% | 0% | 0% | 0% | 0% | 0% | 20% | 65% | plant injury at 2 g/ha (ORYSA; [2]): 0%; plant injury at 8 g/ha (ORYSA; [2]): 20%; plant injury at 31 g/ha (ORYSA; [2]): 100%; plant injury at 125 g/ha (ORYSA; [2]): 100%; plant injury at 500 g/ha (ORYSA; [2]): 100%; pest or weed control at 2 g/ha (MOOVA): 0%; pest or weed control at 8 g/ha (MOOVA): 0%; pest or weed control at 31 g/ha (MOOVA): 0%; pest or weed control at 125 g/ha (MOOVA): 0%; pest or weed control at 500 g/ha (MOOVA): 0%
C=CCON=C(CCC)C1=C(O)CC(c2c(C)c(C)c3c(c2C)CC(C)(C)C3)CC1=O (stereo not drawn) [Compound 8] | 0% | 0% | 0% | 0% | 0% | 0% | 40% | 100% | 100% | 100% | 0% | 0% | 0% | 0% | 0% | 0% | 0% | 0% | 0% | 0% | plant injury at 2 g/ha (ORYSA; [2]): 0%; plant injury at 8 g/ha (ORYSA; [2]): 0%; plant injury at 31 g/ha (ORYSA; [2]): 60%; plant injury at 125 g/ha (ORYSA; [2]): 100%; plant injury at 500 g/ha (ORYSA; [2]): 100%; pest or weed control at 2 g/ha (MOOVA): 0%; pest or weed control at 8 g/ha (MOOVA): 0%; pest or weed control at 31 g/ha (MOOVA): 0%; pest or weed control at 125 g/ha (MOOVA): 0%; pest or weed control at 500 g/ha (MOOVA): 0%
CCCC(=NOCC=CCl)C1=C(O)CC(c2c(C)c(C)c3c(c2C)CC(C)(C)C3)CC1=O (stereo not drawn) [Compound 9] | 0% | 0% | 0% | 0% | 0% | 0% | 50% | 100% | 100% | 100% | 0% | 0% | 0% | 0% | 0% | 0% | 0% | 0% | 0% | 0% | plant injury at 2 g/ha (ORYSA; [2]): 0%; plant injury at 8 g/ha (ORYSA; [2]): 0%; plant injury at 31 g/ha (ORYSA; [2]): 0%; plant injury at 125 g/ha (ORYSA; [2]): 70%; plant injury at 500 g/ha (ORYSA; [2]): 100%; pest or weed control at 2 g/ha (MOOVA): 0%; pest or weed control at 8 g/ha (MOOVA): 0%; pest or weed control at 31 g/ha (MOOVA): 0%; pest or weed control at 125 g/ha (MOOVA): 0%; pest or weed control at 500 g/ha (MOOVA): 0%
CCC(=NOC)C1=C(O)CC(c2c(C)c(C)c3c(c2C)CC(C)(CC)C3)CC1=O (stereo not drawn) [Compound 11] | 0% | 0% | 0% | 0% | 0% | 0% | 30% | 70% | 100% | 100% | 0% | 0% | 0% | 0% | 0% | 0% | 0% | 0% | 30% | 80% | plant injury at 2 g/ha (ORYSA; [2]): 0%; plant injury at 8 g/ha (ORYSA; [2]): 0%; plant injury at 31 g/ha (ORYSA; [2]): 30%; plant injury at 125 g/ha (ORYSA; [2]): 100%; plant injury at 500 g/ha (ORYSA; [2]): 100%; pest or weed control at 2 g/ha (MOOVA): 0%; pest or weed control at 8 g/ha (MOOVA): 0%; pest or weed control at 31 g/ha (MOOVA): 0%; pest or weed control at 125 g/ha (MOOVA): 30%; pest or weed control at 500 g/ha (MOOVA): 50%
